Measurements from paper PMC5665643, “CHIP as a membrane-shuttling proteostasis sensor” (eLife, 2017).

Columns and labels:
PI4KIII = settings: at higher concentrations; ref Nakanishi et al., 1995; cited from earlier work
[1] = test system: EGFP-CHIP-K30A; type III phosphatidylinositol-4 kinases (PI4KIII); assay: Undocking of EGFP-CHIP-K30A from membranes by PI4KIII inhibitors; format: cell-based, murine; settings: same cells followed upon addition of inhibitor; ***p<0.001, t-test; N = 3
Excerpt: Phospholipase D inhibitors FIPI, VU0155069 and CAY10594 were purchased from Caymen Chemicals (Ann Arbor, MI), wortmannin from Enzo (Farmingdale, NY), PI4KIIIβ inhibitor IN-10 from MedChem Express (Monmouth Junction, NJ), HSP70 inhibitor VER-155008 from Sigma-Aldrich (St. Louis, MO), HSP90 inhibitor 17-(Allylamino)−17-demethoxygeldanamycin (17-AAG) from Biomol (Germany). 1,2-dioleoyl-sn-glycero-3-phosphocholine (DOPC) and 1,2-dipalmitoyl-sn-glycero-3-phosphate (phosphatidic acid, PA) were from Avanti Polar Lipids (Alabaster, AL), 1,2-dipalmitoyl-sn-glycero-3-phosphoinositol-4-phosphate (phosphadtidylinositol-4-phosphate, PI4P) was from Echelon Bioscience (Salt Lake City, UT). All other chemicals were from Sigma-Aldrich if not indicated otherwise. […]
For microscopy analysis of CHIP localization, samples were not fixed. […] For quantification, fields of view were chosen randomly. […]
Membrane localization and Golgi morphology were analyzed manually using ImageJ from following numbers of cells (average of at least three independent experiments): 92 (Figure 1a), 142 (Figure 1d), 90 (Figure 1—figure supplement 1b), 125 (Figure 1—figure supplement 1c), 149 (Figure 1—figure supplement 1d), 84 (Figure 3c), 130 (Figure 5a), 206 (Figure 5g), 240 (Figure 5h), 93 (Figure 5—figure supplement 1d), and 137 (Figure 5—figure supplement 1j). […]

## COC[C@H]1OC(=O)c2coc3c2[C@@]1(C)C1=C(C3=O)[C@@H]2CCC(=O)[C@@]2(C)C[C@H]1OC(C)=O [wortmannin]
PI4KIII
  PI4KIII inhibition: inhibits PI4KIII if used at higher concentrations
[1]
  undocking of EGFP-CHIP-K30A from cellular membranes, wortmannin: causes an acute undocking of EGFP-CHIP-K30A from cellular membranes
